# Like-named read-outs stand apart in the source and are kept apart here.
# What was measured:
# [1] = test system: nitric oxide (NO) production in RAW 264.7 cells; experiment: Nitric oxide (NO) production inhibitory assay, LPS-stimulated RAW 264.7 cells, Griess reagent; type: cell-based; conditions: for inhibition at 100 µg/mL: read-out: % of NO Inhibition at 100 µg/mL; for IC50: read-out: NO Production Inhibition IC50
# Procedure: This assay was performed as previously described. […] After 24 h, 100 µL of Griess reagent was added to the samples for 10 min. […] Additionally, the data are presented as the IC50, which was calculated with GraphPad Prism 6.0 software.
# [2] = Cytotoxicity assay against leukemic K562 cells, MTT; conditions: human, K562 leukemic cells
# Procedure: (§1) Lung cancer A549 and colorectal cancer SW480 cells were maintained with Dulbecco’s modified Eagle’s medium (DMEM) containing 10% fetal bovine serum (FBS) and 1% penicillin/streptomycin. Leukemic K562 cells were cultured in RPMI-1640 supplemented with 10% fetal bovine serum (FBS) and 1% penicillin/streptomycin. All cells were cultured in 96-well plates at 37 °C in 5% CO2, followed by treatment with the sample for 24 h. After the incubation period, 0.5 mg/mL MTT was added to the cells and left for 4 h. The formazan was dissolved in DMSO and measured at 570 nm using Biochrom EZ Read 400 ELISA microplate reader (Biochrom Ltd., Cambridge, UK).
# [3] = Cytotoxicity assay in mammalian cells (RAW 264.7), MTT; conditions: mouse, RAW 264.7 cells
# Procedure: (§2) Cell viability was measured by the MTT assay. RAW 264.7 cells were seeded at 4 × 10^4 cells/well in 96-well plates and incubated at 37 °C and 5% CO2 overnight. Cells were treated with different concentrations of tea extracts, including 3.125, 6.25, 12.5, 25, 50, and 100 µg/mL, for 24 h. After 24 h, cells were washed with PBS and incubated with 0.5 mM MTT reagent for 4 h. The detection of formazan at 570 nm was performed with a Biochrom EZ Read 400 ELISA microplate reader (Biochrom Ltd., Cambridge, UK). The data were calculated as IC50 values with GraphPad Prism 6.0 software.
# [4] = Cytotoxicity assay against lung cancer A549 cells, MTT; conditions: human, A549 lung cancer cells
# Procedure: as §1
# [5] = Cytotoxicity assay against colorectal cancer SW480 cells, MTT; conditions: human, SW480 colorectal cancer cells
# Procedure: as §1
# leukemic K562 cells = experiment: Cytotoxicity assay against leukemic K562 cells, MTT; conditions: Homo sapiens, K562, 24 h, read-out: IC50 cytotoxicity K562 (Leukemic Cells)
# Procedure: as §1
# lung cancer A549 cells = experiment: Cytotoxicity assay against lung cancer A549 cells, MTT; conditions: Homo sapiens, A549, 24 h, read-out: IC50 cytotoxicity A549 (Lung Cancer)
# Procedure: as §1
# [6] = test system: colorectal cancer SW480 cells; experiment: Cytotoxicity assay against colorectal cancer SW480 cells, MTT; conditions: Homo sapiens, SW480, 24 h, read-out: IC50 cytotoxicity SW480 (Colorectal Cancer)
# Procedure: as §1
# in vitro = conditions: mouse
# Procedure: as §2
# [7] = test system: lung cancer (A549) cell line; set-up: method as in doi:10.1007/s10600-015-1259-y; conditions: 30 µg/mL; cited from earlier work
# [8] = Mus musculus, RAW264.7, 100 µg/mL, LPS 1 µg/mL, 24 h
# [9] = Mus musculus, RAW264.7, LPS 1 µg/mL, 24 h
structure (smiles),measurement,setting,value
"CC[C@H](C)[C@@H](OC(C)=O)[C@@H](C)C1=C(N)C(=O)C2=C(O[C@]3(C)CC[C@H]4O[C@@H](C(C)(C)O)CC[C@]4(C)[C@H]3[C@@H]2O)C1=O [Compound 1, cochlioquinone N]",inhibition at 100 µg/mL,[1]; [8],51.3 ± 1.65%
same,IC50,[1]; [9],53.7 µM
same,melting point,,185 to 187 °C
same,"viability at 24 h, 100 µg/mL",[2],81.1 ± 3.8%
same,"viability at 24 h, 100 µg/mL",[3],97.14 ± 0.81%
same,"viability at 24 h, 100 µg/mL",[4],88.5 ± 1.19%
same,"viability at 24 h, 100 µg/mL",[5],82.6 ± 1.68%
"CC[C@H](C)[C@@H](OC(C)=O)[C@@H](C)C1=CC(=O)C2=C(O[C@]3(C)CC[C@H]4O[C@@H](C(C)(C)O)CC[C@]4(C)[C@H]3[C@@H]2O)C1=O [Compound 2, cochlioquinone A]","viability at 24 h, 6.25 µg/mL",[2],71 ± 1.69%
same,"viability at 24 h, 12.5 µg/mL",[2],38.4 ± 3.18%
same,"viability at 24 h, 25 µg/mL",[2],21 ± 2.61%
same,"viability at 24 h, 50 µg/mL",[2],13.3 ± 0.89%
same,"viability at 24 h, 100 µg/mL",[2],12.5 ± 1.24%
same,IC50,leukemic K562 cells,17.6 µM
same,IC50 at 24 h,[3],< 11.7 µM
same,"viability at 24 h, 6.25 µg/mL",[3],28.5 ± 1.98%
same,"viability at 24 h, 12.5 µg/mL",[3],16.6 ± 0.52%
same,"viability at 24 h, 25 µg/mL",[3],15 ± 0.29%
same,"viability at 24 h, 50 µg/mL",[3],11.67 ± 0.08%
same,"viability at 24 h, 100 µg/mL",[3],10.8 ± 0.09%
same,"viability at 24 h, 6.25 µg/mL",[4],73.1 ± 1.09%
same,"viability at 24 h, 12.5 µg/mL",[4],23.1 ± 1.84%
same,"viability at 24 h, 25 µg/mL",[4],17.9 ± 1.93%
same,"viability at 24 h, 50 µg/mL",[4],14.8 ± 2.54%
same,"viability at 24 h, 100 µg/mL",[4],13.4 ± 0.48%
same,IC50,lung cancer A549 cells,14.3 µM
same,"viability at 24 h, 6.25 µg/mL",[5],30.8 ± 0.4%
same,"viability at 24 h, 12.5 µg/mL",[5],23.4 ± 0.25%
same,"viability at 24 h, 25 µg/mL",[5],17.6 ± 0.7%
same,"viability at 24 h, 50 µg/mL",[5],15.6 ± 0.77%
same,"viability at 24 h, 100 µg/mL",[5],14.9 ± 0.57%
same,IC50,[6],< 11.7 µM
"C/C=C(\C)[C@@H](OC(C)=O)[C@@H](C)C1=CC(=O)C2=C(O[C@]3(C)CC[C@H]4O[C@@H](C(C)(C)O)CC[C@]4(C)[C@H]3[C@@H]2O)C1=O [Compound 3, stemphone]",inhibition at 100 µg/mL,"[1]; Mus musculus, RAW264.7, 24 h",73.41 ± 0.44%
same,IC50,"[1]; Mus musculus, RAW264.7, 24 h",32.8 µM
same,"viability at 24 h, 100 µg/mL",in vitro,71.4 ± 2.67%
"CC[C@H](C)[C@@H](OC(C)=O)[C@@H](C)C1=CC(=O)C2=C(O[C@]3(C)CC[C@H]4O[C@@H](C(C)(C)O)CC[C@]4(C)C3=C2)C1=O [Compound 4, anhydrocochlioquinone A]","inhibition ratio, cytotoxicity against A549",[7],41%
same,"viability at 24 h, 6.25 µg/mL",[2],19.5 ± 2.62%
same,"viability at 24 h, 12.5 µg/mL",[2],14 ± 2.31%
same,"viability at 24 h, 25 µg/mL",[2],12.9 ± 0.34%
same,"viability at 24 h, 50 µg/mL",[2],11.3 ± 0.4%
same,"viability at 24 h, 100 µg/mL",[2],10.6 ± 0.2%
same,IC50,leukemic K562 cells,< 12.1 µM
same,IC50 at 24 h,[3],< 12.1 µM
same,"viability at 24 h, 6.25 µg/mL",[3],14.3 ± 0.73%
same,"viability at 24 h, 12.5 µg/mL",[3],12.4 ± 0.47%
same,"viability at 24 h, 25 µg/mL",[3],12.1 ± 0.42%
same,"viability at 24 h, 50 µg/mL",[3],12.8 ± 0.7%
same,"viability at 24 h, 100 µg/mL",[3],11.1 ± 0.43%
same,"viability at 24 h, 6.25 µg/mL",[4],12.4 ± 0.17%
same,"viability at 24 h, 12.5 µg/mL",[4],11.6 ± 1.05%
same,"viability at 24 h, 25 µg/mL",[4],10.2 ± 0.17%
same,"viability at 24 h, 50 µg/mL",[4],9.35 ± 0.52%
same,"viability at 24 h, 100 µg/mL",[4],8.4 ± 0.58%
same,IC50,lung cancer A549 cells,< 12.1 µM
same,"viability at 24 h, 6.25 µg/mL",[5],17.3 ± 0.33%
same,"viability at 24 h, 12.5 µg/mL",[5],15.6 ± 0.39%
same,"viability at 24 h, 25 µg/mL",[5],15.4 ± 0.42%
same,"viability at 24 h, 50 µg/mL",[5],14.7 ± 0.24%
same,"viability at 24 h, 100 µg/mL",[5],14.4 ± 0.4%
same,IC50,[6],< 12.1 µM
"CCCC1C2=C(CCC3C(=O)OC(=O)C3=CC1CC)C(=O)OC2=O (stereo not shown) [Compound 5, curvulariahawadride]",IC50,"[1]; LPS 1 µg/mL, 24 h",12.8 µM
same,IC50,"[1]; Mus musculus, RAW264.7, 24 h, LPS 1 µg/mL, 24 h",12.9 µM
same,inhibition at 100 µg/mL,[1]; [8],74 ± 1.14%
"C/C1=C\C[C@]2(C)C(=O)C(O)=C([C@H](C)CO)[C@H]2C/C=C(\C)[C@@H](O)CC/C(C)=C/CC1 [Compound 6, terpestacin]",NO Production Inhibition IC50,"[1]; LPS 1 µg/mL, 24 h",inactive
same,inhibition at 100 µg/mL,[1]; [8],41 ± 3.36%
same,"viability at 24 h, 100 µg/mL",[2],99.2 ± 3.84%
same,"viability at 24 h, 100 µg/mL",[3],99.3 ± 2.51%
same,"viability at 24 h, 100 µg/mL",[4],92 ± 3.75%
same,"viability at 24 h, 100 µg/mL",[5],97.7 ± 1.04%
"COc1ccc2c(c1)c(CC(=O)O)c(C)n2C(=O)c1ccc(Cl)cc1 [Indomethacin, reference compound]",inhibition at 100 µg/mL,[1]; [8],77.45 ± 0.28%
same,IC50,[1]; [9],73.4 µM

# From publication PMC8224630, “Cytotoxicity and Nitric Oxide Production Inhibitory Activities of Compounds Isolated from the Plant Pathogenic Fungus Curvularia sp” (Journal of Fungi, 2021)
